ChEMBL document CHEMBL4732251, “Synthesis and evaluation of the epithelial-to- mesenchymal inhibitory activity of indazole-derived imidazoles as dual ALK5/p38α MAP inhibitors” (Eur J Med Chem, 2021)
Active and inactive are the calls of the source. The calls are words filed in the database; no cut-off is given here.

Tests used:
TGF-beta receptor type-1 = target: T1, TGF-beta receptor type-1 (Homo sapiens, UniProt P36897); experiment: Inhibition of recombinant human GST-fused ALK5 expressed in baculovirus infected Sf9 cells assessed as incoporation of [33]Pi after 60 mins in presence of [gamma-33P]-ATP by microplate scintillation counter method
T1 sequence (P36897 whole entry): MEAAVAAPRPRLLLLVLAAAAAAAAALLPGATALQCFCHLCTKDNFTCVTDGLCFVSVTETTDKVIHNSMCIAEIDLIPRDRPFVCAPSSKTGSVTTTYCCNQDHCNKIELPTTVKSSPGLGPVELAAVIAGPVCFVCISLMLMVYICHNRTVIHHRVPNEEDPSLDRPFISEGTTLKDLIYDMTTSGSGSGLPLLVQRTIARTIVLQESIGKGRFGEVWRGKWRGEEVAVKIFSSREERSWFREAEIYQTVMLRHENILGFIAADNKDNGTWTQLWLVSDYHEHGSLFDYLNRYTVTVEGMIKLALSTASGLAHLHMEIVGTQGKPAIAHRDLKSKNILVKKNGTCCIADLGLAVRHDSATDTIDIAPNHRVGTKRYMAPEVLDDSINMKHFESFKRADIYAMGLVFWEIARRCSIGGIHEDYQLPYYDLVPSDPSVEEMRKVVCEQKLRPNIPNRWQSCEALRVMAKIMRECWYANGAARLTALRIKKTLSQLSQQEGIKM

[1] = target: Mitogen-activated protein kinase 14 (Homo sapiens, UniProt Q16539); experiment: Inhibition of recombinant human p38alpha expressed in Escherichia coli assessed as incoporation of [33]Pi after 60 mins in presence of [gamma-33P]-ATP by microplate scintillation counter method
Sequence of Mitogen-activated protein kinase 14 (Q16539 whole entry): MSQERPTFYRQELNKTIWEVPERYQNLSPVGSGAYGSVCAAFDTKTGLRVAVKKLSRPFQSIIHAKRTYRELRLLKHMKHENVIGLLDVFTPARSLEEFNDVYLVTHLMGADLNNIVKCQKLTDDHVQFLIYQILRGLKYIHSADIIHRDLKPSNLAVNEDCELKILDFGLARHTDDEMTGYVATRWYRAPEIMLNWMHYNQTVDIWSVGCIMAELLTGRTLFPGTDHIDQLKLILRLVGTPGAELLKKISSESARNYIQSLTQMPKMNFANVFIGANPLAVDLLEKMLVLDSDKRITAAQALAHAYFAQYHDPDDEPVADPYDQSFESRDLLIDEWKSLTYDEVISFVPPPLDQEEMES

U-87MG ATCC [2] = experiment: Inhibition of TGF-beta-induced morphological changes in human U-87MG cells at 0.1 to 1 uM after 48 hrs; assay type: functional, cell-based; conditions: dose 0.1-1 µM
U-87 MG [3] = experiment: Inhibition of epithelial-mesenchymal transition in human U-87MG cells assessed as reduction in TGF-beta stimulated Slug protein expression after 48 hrs by Western blot anlaysis; assay type: functional, cell-based; conditions: U-87MG ATCC, dose 0.5-1 µM
U-87MG ATCC [4] = experiment: Reversal of TGF-beta-induced epithelial-mesenchymal transition in human U-87MG cells assessed as reduction in N-cadherin protein level at 0.1 to 0.5 uM after 48 hrs by Western blotting analysis; assay type: functional, cell-based; conditions: dose 0.1-0.5 µM
U-87MG ATCC [5] = experiment: Reversal of TGF-beta-induced epithelial-mesenchymal transition in human U-87MG cells assessed as reduction in vimentin protein level at 0.1 to 0.5 uM after 48 hrs by Western blotting analysis; assay type: functional, cell-based; conditions: dose 0.1-0.5 µM
[6] = target: T2, TGF-beta receptor type-1 (Homo sapiens) (UniProt P36897); experiment: Potency index, ratio of LY-2157299 IC50 to test compound IC50 for recombinant human GST-fused ALK5 expressed in baculovirus infected Sf9 cells assessed as incoporation of [33]Pi after 60 mins in presence of [gamma-33P]-ATP by microplate scintillation counter method
T2 sequence (whole entry): T1 sequence (P36897 whole entry)

[7] = target: T2, TGF-beta receptor type-1 (Homo sapiens); experiment: Potency index, ratio of EW-7197 IC50 to test compound IC50 for recombinant human GST-fused ALK5 expressed in baculovirus infected Sf9 cells assessed as incoporation of [33]Pi after 60 mins in presence of [gamma-33P]-ATP by microplate scintillation counter method
U-87MG ATCC [8] = experiment: Reversal of TGF-beta-induced epithelial-mesenchymal transition in human U-87MG cells assessed as downregulation of N-cadherin expression at 1 uM after 48 hrs by immunofluorescence assay; assay type: functional, cell-based
U-87 MG [9] = experiment: Inhibition of TGF-beta-induced cell migration in human U-87MG cells at 1 uM incubated for 36 hrs by bright field microscopy based wound healing assay; assay type: functional; conditions: U-87MG ATCC
U-87 MG [10] = experiment: Inhibition of epithelial-mesenchymal transition in human U-87MG cells assessed as reduction in TGF-beta stimulated nuclear translocation of slug at 1 uM pretreated with compound followed by TGFbeta stimulation and measured after 48 hrs by immunofluorescence assay; assay type: functional, cell-based; conditions: U-87MG ATCC
U-87MG ATCC [11] = experiment: Reversal of TGF-beta-induced epithelial-mesenchymal transition in human U-87MG cells assessed as reduction in vimentin mRNA level at 1 uM after 48 hrs by RT-PCR analysis; assay type: functional, cell-based
U-87MG ATCC [12] = experiment: Inhibition of TGF-beta-induced cell invasion in human U-87MG cells at 1 uM incubated for 24 hrs by crystal violet staining based matrigel transwell assay; assay type: functional
U-87MG ATCC [13] = experiment: Reversal of TGF-beta-induced epithelial-mesenchymal transition in human U-87MG cells assessed as reduction in N-cadherin mRNA level at 1 uM after 48 hrs by RT-PCR analysis; assay type: functional, cell-based

SMILES | IC50 (TGF-beta receptor type-1) | IC50 [1] | Ratio IC50 [6] | further results
Cc1cccc(-c2[nH]c(CNc3ccccc3F)nc2-c2ccc3[nH]ncc3c2)n1 | 5 nM | 20 nM |  | 
Cc1cccc(-c2nn3c(c2-c2ccnc4ccc(C(N)=O)cc24)CCC3)n1 |  |  |  | inhibition (U-87MG ATCC [2]): Active; inhibition (U-87 MG [3]): Dose-dependent effect; Activity (U-87MG ATCC [4]): Active; Activity (U-87MG ATCC [5]): Active
Cc1cccc(-c2[nH]c(CNc3ccc(F)cc3)nc2-c2ccc3[nH]ncc3c2)n1 | 6 nM | 52 nM | 3.8 | 
Cc1cccc(-c2[nH]c(CNc3cccc(F)c3)nc2-c2ccc3c(cnn3C)c2)n1 | 11 nM | 26 nM | 3.8 | 
Cc1cccc(NCc2nc(-c3ccc4c(cnn4C)c3)c(-c3cccc(C)n3)[nH]2)c1 | 10 nM | 23 nM |  | 
Cc1cccc(NCc2nc(-c3ccc4[nH]ncc4c3)c(-c3cccc(C)n3)[nH]2)c1 | 8 nM | 32 nM | 3.8 | 
Cc1cccc(-c2[nH]c(CNc3ccccc3F)nc2-c2ccc3c(cnn3C)c2)n1 | 13 nM | 95 nM |  | 
Cc1cccc(-c2[nH]c(CNc3ccc(F)cc3)nc2-c2ccc3c(cnn3C)c2)n1 | 16 nM | 112 nM | 3.8 | 

Further lines, with some results ahead:

IC50 (TGF-beta receptor type-1) | IC50 [1] | Ratio IC50 [6] | SMILES | further results
9 nM | 329 nM |  | Cc1ccc(NCc2nc(-c3ccc4[nH]ncc4c3)c(-c3cccc(C)n3)[nH]2)cc1 | 
4 nM | 13 nM | 32.3 | Cc1cccc(-c2[nH]c(CNc3ccccc3)nc2-c2ccc3[nH]ncc3c2)n1 | Ratio IC50 [7]: 3.5
24 nM | 71 nM | 3.8 | Cc1cccc(-c2[nH]c(CNc3ccccc3C)nc2-c2ccc3c(cnn3C)c2)n1 | 
14 nM | 66 nM | 3.8 | Cc1cccc(-c2[nH]c(CNc3ccccc3)nc2-c2ccc3c(cnn3C)c2)n1 | 
4 nM | 4 nM |  | Cc1cccc(-c2[nH]c(CNc3cccc(F)c3)nc2-c2ccc3[nH]ncc3c2)n1 | Activity (U-87MG ATCC [8]): Active; inhibition (U-87MG ATCC [2]): Active; inhibition (U-87 MG [3]): Dose-dependent effect; Activity (U-87MG ATCC [4]): Active; inhibition (U-87 MG [9]): Active; inhibition (U-87 MG [10]): Active; Activity (U-87MG ATCC [5]): Active; Activity (U-87MG ATCC [11]): Active; inhibition (U-87MG ATCC [12]): Active; Activity (U-87MG ATCC [13]): Active
34 nM | 565 nM | 3.8 | Cc1ccc(NCc2nc(-c3ccc4c(cnn4C)c3)c(-c3cccc(C)n3)[nH]2)cc1 | 
5 nM | 23 nM |  | Cc1cccc(-c2[nH]c(CNc3ccccc3C)nc2-c2ccc3[nH]ncc3c2)n1 | 
